According to patent US8697739B2, “Bicyclic acetyl-CoA carboxylase inhibitors and uses thereof” (Novartis AG, priority 2010, dated 2014):

molecular target: T1, human acetyl-CoA carboxylase 2 (ACC2) (Homo sapiens, UniProt O00763); experiment: Acetyl-CoA carboxylase enzyme assay (malonyl-CoA formation by LC/MS/MS); format: biochemical; details: recombinant human ACC2 (aa 144-2458); read-out: IC50 ACC2
T1 construct: The cDNA encoding amino acids 144 to 2458 of human acetyl-CoA carboxylase 2; made in house; host or cells: Sf9 insect cells (baculovirus, pFastBac1)
Source text: The cDNA encoding amino acids 144 to 2458 of human acetyl-CoA carboxylase 2 (ACC2, GenBank Accession #NM_001093) was cloned into the SalI and NotI sites of pFastBac1 (Invitrogen; Carlsbad, Calif.). The resulting plasmid was used to generate a recombinant ACC2 baculovirus that was amplified and titered according to the protocols in the Bac-to-Bac baculovirus expression system manual (Invitrogen). The titered virus was used to infect Sf9 cells grown in Ex-Cell 420 serum-free medium (JRH Biosciences; Lenexa, Kans.). At 48 hours post-infection, the cells were harvested and stored at −80° C. until purification. ACC2 was purified using ammonium sulfate precipitation and anion exchange chromatography.
The enzymatic assay was run as follows: 30 μL of reaction buffer (100 mM HEPES pH 7.5, 20 mM MgCl2, 20 mM potassium citrate, 2 mM DTT) was added to a 384-well microtiter plate followed by 2 μL of the test compound (or 100% DMSO control). ACC2 protein (10 μL of a 50 nM working solution) was added to plate, which was incubated at room temperature for 15 minutes. A 30 μL addition of substrate solution (50 μM acetyl-CoA, 120 μM ATP, 2 mM KHCO3) was used to initiate the reactions which were quenched with 6% acetic acid (40 μL). ACC catalyzed malonyl-CoA formation was detected by LC/MS/MS using a Cohesive Technologies LX Series multiplex LC/MSIMS system configured with four binary pumps (Agilent Technologies; Palo Alto, Calif.), a dual arm autosampler (Leap Technologies; Cary, N.C.), and one Quattro Micro triple quadrupole mass spectrometer (Waters, Milford, Mass.), all run by Aria Software version 1.5 (Cohesive Technologies; Franklin, Mass.). Four samples were injected (20 μL) onto four Phenosphere NEXT C18 30×2 mm 5 μm columns (Phenomenex; Torrance, Calif.), eluted by four separate pumps, running identical gradients, through a column switching manifold with the one outlet fitted to the electrospray (ESI) source. Malonyl-CoA was eluted with 5 mM ammonium acetate, pH 4.5 (Buffer A) and 100% acetonitrile (Buffer B) via a step gradient. Argon was used as the collision gas and the following species were monitored via MRM detection: malonyl-CoA (853.8>346.9), internal standard (A: [^13C3]-malonyl-CoA, 857>350). The lower limit of detection is 0.3 uM for malonyl-CoA in this assay.

T1 sequence (O00763 144-2458): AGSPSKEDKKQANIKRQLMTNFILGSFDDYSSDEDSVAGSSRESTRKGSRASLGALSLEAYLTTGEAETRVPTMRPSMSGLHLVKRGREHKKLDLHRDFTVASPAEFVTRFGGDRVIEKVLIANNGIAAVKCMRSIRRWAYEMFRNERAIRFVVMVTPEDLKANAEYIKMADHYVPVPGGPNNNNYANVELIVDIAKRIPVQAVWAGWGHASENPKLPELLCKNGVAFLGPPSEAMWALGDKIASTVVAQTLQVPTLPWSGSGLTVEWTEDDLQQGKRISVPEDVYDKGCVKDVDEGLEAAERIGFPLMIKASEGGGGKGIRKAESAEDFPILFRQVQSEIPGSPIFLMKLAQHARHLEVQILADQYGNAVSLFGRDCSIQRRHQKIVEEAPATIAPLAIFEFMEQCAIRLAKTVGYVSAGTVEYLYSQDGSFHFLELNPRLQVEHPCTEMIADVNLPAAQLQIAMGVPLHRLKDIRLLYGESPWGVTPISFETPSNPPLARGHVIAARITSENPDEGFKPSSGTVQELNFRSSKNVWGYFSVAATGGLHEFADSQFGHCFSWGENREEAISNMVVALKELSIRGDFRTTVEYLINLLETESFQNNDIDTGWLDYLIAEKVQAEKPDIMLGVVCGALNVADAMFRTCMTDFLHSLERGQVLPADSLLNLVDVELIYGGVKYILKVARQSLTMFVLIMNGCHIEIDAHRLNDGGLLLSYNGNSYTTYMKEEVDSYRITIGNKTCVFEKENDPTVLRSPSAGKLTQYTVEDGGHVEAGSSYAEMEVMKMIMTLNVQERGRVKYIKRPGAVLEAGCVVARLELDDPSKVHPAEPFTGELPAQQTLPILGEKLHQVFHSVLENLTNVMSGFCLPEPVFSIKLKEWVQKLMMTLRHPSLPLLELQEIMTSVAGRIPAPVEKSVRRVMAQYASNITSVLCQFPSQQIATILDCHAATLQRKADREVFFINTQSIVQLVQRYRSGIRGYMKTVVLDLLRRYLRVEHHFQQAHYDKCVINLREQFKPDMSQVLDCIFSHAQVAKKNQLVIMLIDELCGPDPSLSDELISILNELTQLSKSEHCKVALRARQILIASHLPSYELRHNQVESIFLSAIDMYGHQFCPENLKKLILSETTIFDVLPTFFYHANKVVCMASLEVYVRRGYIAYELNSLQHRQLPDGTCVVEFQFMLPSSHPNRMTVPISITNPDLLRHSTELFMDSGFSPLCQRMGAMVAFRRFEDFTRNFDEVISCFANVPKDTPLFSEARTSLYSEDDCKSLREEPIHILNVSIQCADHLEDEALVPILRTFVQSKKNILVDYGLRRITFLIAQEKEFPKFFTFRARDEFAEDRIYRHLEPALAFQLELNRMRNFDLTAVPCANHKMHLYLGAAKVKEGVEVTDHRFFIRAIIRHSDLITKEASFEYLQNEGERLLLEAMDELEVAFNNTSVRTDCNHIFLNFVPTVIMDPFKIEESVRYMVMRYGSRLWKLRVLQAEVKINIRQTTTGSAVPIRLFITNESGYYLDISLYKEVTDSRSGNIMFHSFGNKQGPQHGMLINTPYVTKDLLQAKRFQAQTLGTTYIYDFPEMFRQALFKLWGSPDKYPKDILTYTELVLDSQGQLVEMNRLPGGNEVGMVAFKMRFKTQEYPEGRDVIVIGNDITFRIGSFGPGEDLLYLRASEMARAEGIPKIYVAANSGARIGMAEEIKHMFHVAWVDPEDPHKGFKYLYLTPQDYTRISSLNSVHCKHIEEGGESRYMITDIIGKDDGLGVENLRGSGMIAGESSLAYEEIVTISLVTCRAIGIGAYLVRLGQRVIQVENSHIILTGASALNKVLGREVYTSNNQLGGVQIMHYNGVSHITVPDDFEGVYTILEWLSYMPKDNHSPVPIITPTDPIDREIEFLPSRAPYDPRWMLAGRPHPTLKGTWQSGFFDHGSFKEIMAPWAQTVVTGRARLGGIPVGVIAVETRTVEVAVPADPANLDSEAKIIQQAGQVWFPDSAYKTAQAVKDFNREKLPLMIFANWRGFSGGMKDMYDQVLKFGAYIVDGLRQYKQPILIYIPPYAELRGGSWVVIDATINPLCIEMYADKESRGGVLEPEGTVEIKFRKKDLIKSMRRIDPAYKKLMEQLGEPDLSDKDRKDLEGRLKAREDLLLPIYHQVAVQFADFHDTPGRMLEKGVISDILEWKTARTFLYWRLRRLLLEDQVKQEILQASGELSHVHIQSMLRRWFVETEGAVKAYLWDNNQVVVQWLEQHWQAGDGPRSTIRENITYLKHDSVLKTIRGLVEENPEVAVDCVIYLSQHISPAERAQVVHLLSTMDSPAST

**Q.** With `COCCc1ccc(-c2[nH]c3cc(S(=O)(=O)N[C@H]4CC[C@H](C(=O)N5CCOC[C@@H]5C(C)C)CC4)ccc3c2Cl)cc1` [Example 461, 3-chloro-N-((1S,4r)-4-((S)-3-isopropylmorpholine-4-carbonyl)cyclohexyl)-2-(4-(2-methoxyethyl)phenyl)-1H-indole-6-sulfonamide] as the compound, how does the IC50 read?
**A.** < 10 nM

**Q.** How did the IC50 turn out when `C[C@@H](NC(=O)[C@H]1CC[C@H](NS(=O)(=O)c2ccc3c(c2)OCCO3)CC1)c1ccc(F)cc1` [Example 123, (1r,4R)-4-(2,3-dihydrobenzo[b][1,4]dioxine-6-sulfonamido)-N-((R)-1-(4-fluorophenyl)ethyl)cyclohexanecarboxamide] was run?
**A.** 450 nM

**Q.** With `CC(C)OC(=O)c1ccc(NS(=O)(=O)c2ccc3[nH]c(-c4ccc(CN(C)C)cc4)nc3c2)cc1` [Example 558, isopropyl 4-(2-(4-((dimethylamino)methyl)phenyl)-1H-benzo[d]imidazole-5-sulfonamido)benzoate] as the compound, how does the IC50 read?
**A.** 337 nM

**Q.** For `CC(C)(O)C1CCCN(C(=O)[C@H]2CC[C@H](NS(=O)(=O)c3ccc4c(Cl)c(-c5ccccc5)[nH]c4c3)CC2)C1` (stereo partly shown) [Example 383, 3-chloro-N-((1r,4r)-4-(3-(2-hydroxypropan-2-yl)piperidine-1-carbonyl)cyclohexyl)-2-phenyl-1H-indole-6-sulfonamide], which IC50 is on record?
**A.** < 10 nM

**Q.** `CN(C(=O)[C@H]1CC[C@H](NS(=O)(=O)c2ccc3[nH]c(-c4ccccc4)nc3c2)CC1)C1CCCCC1` [Example 618, (1r,4r)-N-cyclohexyl-N-methyl-4-(2-phenyl-1H-benzo[d]imidazole-5-sulfonamido)cyclohexanecarboxamide] was tested. Which IC50 did it give?
**A.** 80 nM

**Q.** How did the IC50 turn out when `CCN(C)C(=O)[C@H]1CC[C@H](NS(=O)(=O)c2ccc3[nH]c(-c4ccc(N5CCN(C)CC5)cc4)nc3c2)CC1` [Example 567, (1r,4r)-N-ethyl-N-methyl-4-(2-(4-(4-methylpiperazin-1-yl)phenyl)-1H-benzo[d]imidazole-5-sulfonamido)cyclohexanecarboxamide] was run?
**A.** 65 nM

**Q.** How did the IC50 turn out when `C[C@@H](NC(=O)[C@H]1CC[C@H](NS(=O)(=O)c2ccc3nc(-c4ccccc4)oc3c2)CC1)c1ccc(F)cc1` [Example 11, N—((R)-1-(4-fluorophenyl)ethyl)-4-(2-phenylbenzo[d]oxazole-6-sulfonamido)cyclohexanecarboxamide] was run?
**A.** 48 nM

**Q.** Which IC50 does the source give for `COc1cc(Nc2nc3cc(S(=O)(=O)Nc4ccc(C(=O)OC(C)C)cc4)ccc3[nH]2)cc(OC)c1OC` [Example 543, isopropyl 4-(2-(3,4,5-trimethoxyphenylamino)-1H-benzo[d]imidazole-5-sulfonamido)benzoate] here?
**A.** 280 nM

**Q.** For `C[C@@H](NC(=O)[C@H]1CC[C@H](NS(=O)(=O)c2ccc3c(c2)ncn3C)CC1)c1ccc(F)cc1` [Example 109, (1r,4R)-N-((R)-1-(4-fluorophenyl)ethyl)-4-(1-methyl-1H-benzo[d]imidazole-5-sulfonamido)cyclohexanecarboxamide], which IC50 is on record?
**A.** 321 nM

**Q.** How did the IC50 turn out when `COCCOc1ccc(-c2cc3ccc(S(=O)(=O)N[C@H]4CC[C@H](C(=O)N[C@H](CO)C5CC5)CC4)cc3n2C)cc1` [Example 449, (1r,4S)-N-((S)-1-cyclopropyl-2-hydroxyethyl)-4-(2-(4-(2-methoxyethoxy)phenyl)-1-methyl-1H-indole-6-sulfonamido)cyclohexanecarboxamide] was run?
**A.** 75 nM

**Q.** With `O=C([C@H]1CC[C@H](NS(=O)(=O)c2ccc3c(Cl)c(-c4ccccc4)[nH]c3c2)CC1)N1CCCCC1` [Example 373, 3-chloro-2-phenyl-N-((1r,4r)-4-(piperidine-1-carbonyl)cyclohexyl)-1H-indole-6-sulfonamide] as the compound, how does the IC50 read?
**A.** 75 nM

**Q.** How did the IC50 turn out when `Cc1c[nH]c2ncc(S(=O)(=O)N[C@H]3CC[C@H](C(=O)N[C@H](C)c4ccc(F)cc4)CC3)cc12` [Example 138, (1r,4R)-N-((R)-1-(4-fluorophenyl)ethyl)-4-(3-methyl-1H-pyrrolo[2,3-b]pyridine-5-sulfonamido)cyclohexanecarboxamide] was run?
**A.** 147 nM

**Q.** With `O=C(Nc1cccc(C(F)(F)F)c1)[C@H]1CC[C@H](NS(=O)(=O)c2ccc3[nH]c(-c4ccccc4)nc3c2)CC1` [Example 648, (1r,4r)-4-(2-phenyl-1H-benzo[d]imidazole-5-sulfonamido)-N-(3-(trifluoromethyl)phenyl)cyclohexanecarboxamide] as the compound, how does the IC50 read?
**A.** 1840 nM

**Q.** Which IC50 does the source give for `COC(=O)[C@@H](NC(=O)[C@H]1CC[C@H](NS(=O)(=O)c2ccc3cc(-c4ccccc4)n(C)c3c2)CC1)c1ccccc1` [Example 351, (S)-methyl 2-((1r,4S)-4-(1-methyl-2-phenyl-1H-indole-6-sulfonamido)cyclohexanecarboxamido)-2-phenylacetate] here?
**A.** 95 nM

**Q.** For `C[C@@H](NC(=O)[C@H]1CC[C@H](NS(=O)(=O)c2ccc3[nH]c([C@@H]4CC(F)(F)CN4)nc3c2)CC1)c1ccc(F)cc1` [Example 118, (1r,4R)-4-(2-((S)-4,4-difluoropyrrolidin-2-yl)-1H-benzo[d]imidazole-5-sulfonamido)-N-((R)-1-(4-fluorophenyl)ethyl)cyclohexanecarboxamide], which IC50 is on record?
**A.** 1750 nM

**Q.** How did the IC50 turn out when `COC(=O)[C@H]1CC[C@H](NS(=O)(=O)c2ccc3nc(-c4ccccc4)[nH]c3c2)CC1` [Example 98, (1r,4r)-methyl 4-(2-phenyl-1H-benzo[d]imidazole-6-sulfonamido)cyclohexanecarboxylate] was run?
**A.** 4300 nM

**Q.** `CCOC(=O)CCc1cc2ccc(S(=O)(=O)N[C@H]3CC[C@H](C(=O)N4CCCC4c4ccc(F)cc4)CC3)cc2n1C` (stereo partly shown) [Example 369, ethyl 3-(6-(N-((1r,4r)-4-(2-(4-fluorophenyl)pyrrolidine-1-carbonyl)cyclohexyl)sulfamoyl)-1-methyl-1H-indol-2-yl)propanoate] was tested. Which IC50 did it give?
**A.** 180 nM

**Q.** With `O=C1NCCCC[C@@H]1NC(=O)[C@H]1CC[C@H](NS(=O)(=O)c2ccc3[nH]c(-c4ccccc4)nc3c2)CC1` [Example 612, (1r,4S)-N-((S)-2-oxoazepan-3-yl)-4-(2-phenyl-1H-benzo[d]imidazole-5-sulfonamido)cyclohexanecarboxamide] as the compound, how does the IC50 read?
**A.** 16 nM

**Q.** `C[C@@H](NC(=O)[C@H]1CC[C@H](NS(=O)(=O)c2ccc3cc(C4CCCC4)[nH]c3c2)CC1)c1ccc(F)cc1` [Example 304, (1r,4R)-4-(2-cyclopentyl-1H-indole-6-sulfonamido)-N-((R)-1-(4-fluorophenyl)ethyl)cyclohexanecarboxamide] was tested. Which IC50 did it give?
**A.** 180 nM

**Q.** How did the IC50 turn out when `Cn1c(-c2ccccc2)cc2ccc(S(=O)(=O)N[C@H]3CC[C@H](C(=O)N4CCC[C@@H]4C(C)(C)O)CC3)cc21` [Example 443, N-((1R,4r)-4-((R)-2-(2-hydroxypropan-2-yl)pyrrolidine-1-carbonyl)cyclohexyl)-1-methyl-2-phenyl-1H-indole-6-sulfonamide] was run?
**A.** 30 nM

**Q.** How did the IC50 turn out when `Cc1ccccc1-c1cc2ccc(S(=O)(=O)NC3CCC(C(=O)N4CCOCC4c4ccccc4)CC3)cc2[nH]1` [Example 327, N-((1S,4r)-4-((S)-3-phenylmorpholine-4-carbonyl)cyclohexyl)-2-o-tolyl-1H-indole-6-sulfonamide] was run?
**A.** < 10 nM

**Q.** With `C[C@@H](NC(=O)[C@H]1CC[C@H](NS(=O)(=O)c2ccc3[nH]c(-c4ccc(N5CCN(C)CC5)cc4)nc3c2)CC1)c1ccccc1` [Example 575, (1r,4R)-4-(2-(4-(4-methylpiperazin-1-yl)phenyl)-1H-benzo[d]imidazole-5-sulfonamido)-N-((R)-1-phenylethyl)cyclohexanecarboxamide] as the compound, how does the IC50 read?
**A.** < 10 nM
